Data as given in patent US10059713B2 (Takeda Pharmaceutical Company Limited, priority 2014, dated 2018).

Molecular target: human GPR43 (Homo sapiens (Human), UniProt O15552)
Assay: Ca-Flux functional assay: determination of agonist/positive allosteric modulator (PAM) activity
Assay type: cell-based
Settings: CHO-K1 Gα16 cells stably expressing human GPR43; compound added with EC20 sodium acetate; intracellular Ca2+ by FLIPR; does not distinguish agonist from PAM
How it was run: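 CHO-K1 Gα16 cells stably expressing human GPR43, loaded with Calcium 5 dye 1 h; compounds (10-point half-log from 10 μM) added with sodium acetate at EC20. FLIPR calcium signal gave EC50, two wells per point; agonists and PAMs not distinguished.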

Sequence of human GPR43 (O15552 whole entry): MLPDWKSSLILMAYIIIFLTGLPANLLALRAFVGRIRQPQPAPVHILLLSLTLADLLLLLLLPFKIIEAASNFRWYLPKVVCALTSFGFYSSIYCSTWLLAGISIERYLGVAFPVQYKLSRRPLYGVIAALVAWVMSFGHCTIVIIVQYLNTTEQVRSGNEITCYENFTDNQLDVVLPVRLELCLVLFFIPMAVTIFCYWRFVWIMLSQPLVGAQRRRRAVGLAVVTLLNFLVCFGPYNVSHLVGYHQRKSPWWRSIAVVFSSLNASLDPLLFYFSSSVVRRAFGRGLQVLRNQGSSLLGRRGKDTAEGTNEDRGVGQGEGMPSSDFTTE

With `Cc1nc(N2CCOC(C)C2)c2[nH]c(N)c(S(=O)(=O)c3ccc(F)cc3F)c2n1` (stereo not shown) [Example 262, 7-(2,4-difluorobenzenesulfonyl)-2-methyl-4-(2-methylmorpholin-4-yl)-5H-pyrrolo[3,2-d]pyrimidin-6-amine] as the compound, how does the EC50 read?
Its EC50 is 5 nM.

`Cc1nc(N2CCOC(C)(C(F)(F)F)C2)c2[nH]c(N)c(S(=O)(=O)c3ccccc3F)c2n1` (stereo not shown) [Example 303, 7-(2-fluorobenzenesulfonyl)-2-methyl-4-[2-methyl-2-(trifluoromethyl)morpholin-4-yl]-5H-pyrrolo[3,2-d]pyrimidin-6-amine] was tested. Which EC50 did it give?
Its EC50 is 3 nM.

Which EC50 does the source give for `COc1ccc(S(=O)(=O)c2c(N)[nH]c3c(-c4ccccc4)ncnc23)cc1` [Example 76, 7-(4-methoxybenzenesulfonyl)-4-phenyl-5H-pyrrolo[3,2-d]pyrimidin-6-amine] here?
The EC50 was 135 nM.

With `Cc1nc(N2CCO[C@@H](C)C2)c2[nH]c(N)c(S(=O)(=O)c3ccccc3Cl)c2n1` [Example 261, 7-(2-chlorobenzenesulfonyl)-2-methyl-4-[(2S)-2-methylmorpholin-4-yl]-5H-pyrrolo[3,2-d]pyrimidin-6-amine] as the compound, how does the EC50 read?
The EC50 was 14 nM.

Which EC50 does the source give for `Cc1nc(OCC2CCC2)c2[nH]c(N)c(S(=O)(=O)c3ccccc3)c2n1` [Example 249, 7-(benzenesulfonyl)-4-(cyclobutylmethoxy)-2-methyl-5H-pyrrolo[3,2-d]pyrimidin-6-amine] here?
The EC50 was 31 nM.

How did the EC50 turn out when `Nc1[nH]c2c(N3CCCCC3)ncnc2c1S(=O)(=O)c1ccccc1` [Example 7, 7-(benzenesulfonyl)-4-(piperidin-1-yl)-5H-pyrrolo[3,2-d]pyrimidin-6-amine] was run?
Its EC50 is 47 nM.

How did the EC50 turn out when `Nc1[nH]c2c(OCC3CCOC3)ncnc2c1S(=O)(=O)c1ccccc1` (stereo not shown) [Example 119, 7-(benzenesulfonyl)-4-(oxolan-3-ylmethoxy)-5H-pyrrolo[3,2-d]pyrimidin-6-amine] was run?
The EC50 was 2960 nM.

Which EC50 does the source give for `COc1ccc(S(=O)(=O)c2c(N)[nH]c3c(C4CCCCC4)ncnc23)cn1` [Example 44, 4-cyclohexyl-7-(6-methoxypyridine-3-sulfonyl)-5H-pyrrolo[3,2-d]pyrimidin-6-amine] here?
Its EC50 is 173 nM.

Which EC50 does the source give for `Cc1nc(OC2CCCOC2(C)C)c2[nH]c(N)c(S(=O)(=O)c3ccccc3F)c2n1` (stereo not shown) [Example 296, 4-[(2,2-dimethyloxan-3-yl)oxy]-7-(2-fluorobenzenesulfonyl)-2-methyl-5H-pyrrolo[3,2-d]pyrimidin-6-amine] here?
The EC50 was 53 nM.

With `Cc1nc(N2CCO[C@@H](C)C2)c2[nH]c(N)c(S(=O)(=O)c3ccc(Br)cc3F)c2n1` [Example 239, 7-(4-bromo-2-fluorobenzenesulfonyl)-2-methyl-4-[(2S)-2-methylmorpholin-4-yl]-5H-pyrrolo[3,2-d]pyrimidin-6-amine] as the compound, how does the EC50 read?
The EC50 was 2 nM.

`Nc1[nH]c2c(N3CCC3)ncnc2c1S(=O)(=O)c1ccccc1` [Example 30, 4-(azetidin-1-yl)-7-(benzenesulfonyl)-5H-pyrrolo[3,2-d]pyrimidin-6-amine] was tested. Which EC50 did it give?
The EC50 was 9530 nM.

`CC1(C)CN(c2ccnc3c(S(=O)(=O)c4ccccc4)c(N)[nH]c23)CCO1` [Example 277, 3-(benzenesulfonyl)-7-(2,2-dimethylmorpholin-4-yl)-H-pyrrolo[3,2-b]pyridin-2-amine] was tested. Which EC50 did it give?
The EC50 was 40 nM.

With `Cc1nc(OC(C)C2CCC2)c2[nH]c(N)c(S(=O)(=O)c3ccccc3)c2n1` (stereo not shown) [Example 256, 7-(benzenesulfonyl)-4-(1-cyclobutylethoxy)-2-methyl-5H-pyrrolo[3,2-d]pyrimidin-6-amine] as the compound, how does the EC50 read?
Its EC50 is 18 nM.

For `C[C@@H](Oc1ncnc2c(S(=O)(=O)c3ccccc3)c(N)[nH]c12)c1ccccn1` [Example 162, 7-(benzenesulfonyl)-4-[(1R)-1-(pyridin-2-yl)ethoxy]-5H-pyrrolo[3,2-d]pyrimidin-6-amine], which EC50 is on record?
The EC50 was 141 nM.

For `Cc1nc(N2CCO[C@@H](C(F)(F)F)C2)c2[nH]c(N)c(S(=O)(=O)c3c(F)cccc3F)c2n1` [Example 295, 7-(2,6-difluorobenzenesulfonyl)-2-methyl-4-[(2R)-2-(trifluoromethyl)morpholin-4-yl]-5H-pyrrolo[3,2-d]pyrimidin-6-amine], which EC50 is on record?
Its EC50 is 3 nM.

How did the EC50 turn out when `CC1CN(c2ncnc3c(S(=O)(=O)CCc4ccccc4)c(N)[nH]c23)CCO1` (stereo not shown) [Example 153, 4-(2-methylmorpholin-4-yl)-7-(2-phenylethanesulfonyl)-5H-pyrrolo[3,2-d]pyrimidin-6-amine] was run?
The EC50 was 814 nM.

For `Cc1nc(C2CCCCC2)c2[nH]c(N)c(S(=O)(=O)c3ccccc3)c2n1` [Example 40, 7-(benzenesulfonyl)-4-cyclohexyl-2-methyl-5H-pyrrolo[3,2-d]pyrimidin-6-amine], which EC50 is on record?
The EC50 was 55 nM.

How did the EC50 turn out when `Cc1nc(OC(C)C2CC2)c2[nH]c(N)c(S(=O)(=O)c3ccccc3)c2n1` (stereo not shown) [Example 230, 7-(benzenesulfonyl)-4-(1-cyclopropylethoxy)-2-methyl-5H-pyrrolo[3,2-d]pyrimidin-6-amine] was run?
Its EC50 is 22 nM.

How did the EC50 turn out when `Cc1nc(OC(C)C2CCCC2)c2[nH]c(N)c(S(=O)(=O)c3ccccc3)c2n1` (stereo not shown) [Example 247, 7-(benzenesulfonyl)-4-(1-cyclopentylethoxy)-2-methyl-5H-pyrrolo[3,2-d]pyrimidin-6-amine] was run?
The EC50 was 16 nM.

Which EC50 does the source give for `Cc1nc(N2CCOC(C)C2)c2[nH]c(N)c(S(=O)(=O)c3cccc(F)c3F)c2n1` (stereo not shown) [Example 182, 7-(2,3-difluorobenzenesulfonyl)-2-methyl-4-(2-methylmorpholin-4-yl)-5H-pyrrolo[3,2-d]pyrimidin-6-amine] here?
The EC50 was 6 nM.

Which EC50 does the source give for `Nc1[nH]c2c(-c3ccncc3)ncnc2c1S(=O)(=O)c1ccccc1` [Example 66, 7-(benzenesulfonyl)-4-(pyridin-4-yl)-5H-pyrrolo[3,2-d]pyrimidin-6-amine] here?
The EC50 was 2410 nM.

With `Nc1[nH]c2c(C3=CCCCC3)ncnc2c1S(=O)(=O)c1ccc(OC(F)F)cc1` [Example 33, 4-(cyclohex-1-en-1-yl)-7-{[4-(difluoromethoxy)benzene]sulfonyl}-5H-pyrrolo[3,2-d]pyrimidin-6-amine] as the compound, how does the EC50 read?
The EC50 was 52 nM.

`CC1COCCN1c1ncnc2c(S(=O)(=O)c3ccccc3)c(N)[nH]c12` (stereo not shown) [Example 54, 7-(benzenesulfonyl)-4-(3-methylmorpholin-4-yl)-5H-pyrrolo[3,2-d]pyrimidin-6-amine] was tested. Which EC50 did it give?
The EC50 was 211 nM.

`COc1ccc(S(=O)(=O)c2c(N)[nH]c3c(N4CCOC(C)(C)C4)nc(C)nc23)cc1` [Example 204, 4-(2,2-dimethylmorpholin-4-yl)-7-(4-methoxybenzenesulfonyl)-2-methyl-5H-pyrrolo[3,2-d]pyrimidin-6-amine] was tested. Which EC50 did it give?
Its EC50 is 15 nM.

How did the EC50 turn out when `CCC(CC)Oc1ncnc2c(S(=O)(=O)c3ccccc3)c(N)[nH]c12` [Example 213, 7-(benzenesulfonyl)-4-(pentan-3-yloxy)-5H-pyrrolo[3,2-d]pyrimidin-6-amine] was run?
Its EC50 is 17 nM.

`Nc1[nH]c2c(N3CCC(F)(F)CC3)ccnc2c1S(=O)(=O)c1ccccc1` [Example 219, 3-(benzenesulfonyl)-7-(4,4-difluoropiperidin-1-yl)-1H-pyrrolo[3,2-b]pyridin-2-amine] was tested. Which EC50 did it give?
Its EC50 is 18 nM.

`Cc1nc(N2CCOC(C)(C)C2)c2[nH]c(N)c(S(=O)(=O)c3c(F)cccc3F)c2n1` [Example 287, 7-(2,6-difluorobenzenesulfonyl)-4-(2,2-dimethylmorpholin-4-yl)-2-methyl-5H-pyrrolo[3,2-d]pyrimidin-6-amine] was tested. Which EC50 did it give?
Its EC50 is 9 nM.

Which EC50 does the source give for `Nc1[nH]c2c(C3=CCCCC3)ncnc2c1S(=O)(=O)c1ccc(F)c(F)c1` [Example 49, 4-(cyclohex-1-en-1-yl)-7-[(3,4-difluorobenzene)sulfonyl]-5H-pyrrolo[3,2-d]pyrimidin-6-amine] here?
Its EC50 is 113 nM.
